Data reported in patent US5484778A, “Phthalocyanine photosensitizers for photodynamic therapy and methods for their use” (priority 1993, dated 1996).
Read-outs that look alike come from different tables or passages of the source.

Experiments:
[1] = test system: V79 cells; assay: Uptake of additional phthalocyanines into V79 cells (Table 2); settings: for Uptake into V79 cells: 18 hours; for Uptake into V79 cells, composite value: average of all data; for Uptake (from Table 2): repeated in Table 3; for dependence of uptake on phthalocyanine concentration: V79 cells, 1-4 μM; for Uptake into V79 cells, composite value (asterisk): asterisk: listed value is for 1 μM, average would be higher
Protocol: V79 cells Chinese hamster lung fibroblasts were cultured using the cell culture methods described above. […] When the filters were dry, the phthalocyanines were extracted into ethanol and the absorption determined at the peak wavelength, usually 668 nm.

[2] = test system: V79 cells; assay: Clonogenicity, killing of V79 cells using photodynamic therapy (Table 3); format: cell-based, Chinese hamster
Protocol: Using the cell culture methods described above, V79 cells Chinese hamster lung fibroblasts were treated with either 0.5 or 1.0 μM of the phthalocyanines listed in Table 3. About 18 hours thereafter, the cells were irradiated with increasing doses of 675 nm broad band red light from a 500 W tungsten-halogen lamp fitted with a 600 nm high pass filter, to determine the light dosage that would kill 90% of the phthalocyanine treated cells. Where 90% of the cells were not killed, the maximum percent of cells killed were determined, (expressed as % survival) and the related light dosage recorded.

[3] = test system: L5178Y cells; assay: Induction of apoptosis (DNA fragmentation) in L5178Y-R cells (Table 6); format: cell-based, mouse; settings: for induction of apoptosis: 1 μM at a fluence of 30 kJ/m^2
Protocol: Mouse lymphoma L5178y-R (hereinafter also referred to as "LY-R") cells were grown in suspension culture as described in Ramakrishnan N., Oleinick, N. L. Clay, M. E., Horng, M. F., Antunez, A. R., and Evans H. H., DNA lesions and DNA degradation in mouse lymphoma L5178Y cells after photodynamic treatment sensitized by chloroaluminum phthalocyanine. Photochem. Photobiol. 50, 373-378, 1989 and Agarwal, M. L., Clay, M. E., Harvey, E. J., Evans, H. H., Antunez, A. R., and Oleinick, N. L. Photodynamic therapy induces rapid cell death by apoptosis in L5178Y mouse lymphoma cells. Cancer Res., 51, 5993-5996, 1991.
The cells were used while in exponential growth. Stock solutions of either 0.5 or 1 mM of PcIV, PcXII, PcX, PcXVIII were prepared in dimethylformamide unless otherwise indicated and added to the 10 mL medium at a rate of 1 μL per mL. After allowing 18 hours for uptake of the phthalocyanine into the cells, the flasks containing the cultures were placed on a glass exposure tray above a 500-W tungsten-halogen lamp. The exposure tray was fitted with a 600-nm high-pass filter. Flasks were exposed to various fluences of red light (up to 30 kJ/m^2) at a fluence rate of approximately 74 W/m^2). After irradiation, the cells were collected by centrifugation.
For measurement of clonogenic cell survival, aliquots were plated in medium containing soft agar as described in Ramakrishnan N., Oleinick, N. L. Clay, M. E., Horng, M. F., Antunez, A. R., and Evans H. H., DNA lesions and DNA degradation in mouse lymphoma L5178Y cells after photodynamic treatment sensitized by chloroaluminum phthalocyanine. Photochem. Photobiol. 50, 373-378, 1989. The aliquots were plated in sufficient numbers to produce 50-200 colonies. The dishes were kept in an incubator at 37° C. in an atmosphere of 5% CO2 and 95% air for 10-14 days to allow viable cells to form colonies. Colonies were counted by eye. Controls treated with the phthalocyanine alone had plating efficiencies of ~90%. The plating efficiencies of the treated cells are normalized to the plating efficiencies of control cells in each experiment. For measurement of the induction of apoptosis, DNA was isolated from the treated and control cells 2 hours after photodynamic therapy, subjected to electrophoresis on 1.5% agarose, stained with ethidium bromide, and visualized by UV transillumination, as described in Agarwal et. al. The results are shown in Tables 4, 5 and 6 and in FIG. 3.
Cells were treated with various concentrations of the compounds listed in the table and various light fluences. DNA gels were prepared and examined for the characteristic "ladder" pattern of DNA fragments. For each Pc, the minimum total PDT dose tested (calculated as the product of the minimum phthalocyanine concentration and the minimum fluence) which produced visible DNA fragments is recorded. […] PcXVIII was also added at 0.5 and 1.0 μM.

[4] = test system: RIF-1 tumors; assay: PDT of RIF-1 implanted tumors (Table 7); format: in vivo, C3H/HeN mice; settings: 5 mg/kg in phosphate buffered saline; 675 nm, 135 J/cm^2
Protocol: The relative effectiveness at reducing tumor volume of selected phthalocyanine compounds at a given dosage was compared in vivo. RIF-1, i.e., radiation-induced fibrosarcoma, tumors were implanted into the backs of C3H/HeN mice. One tumor was implanted per mouse. Each of the phthalocyanine compounds listed in Table 7 was sonicated and vortexed in corn oil to produce a suspension. When the tumors reached […] in diameter and 2-3 mm in thickness, each mouse received 1 mg/kg in 0.1 ml of the corn oil, of the phthalocyanine suspension. For comparison, select mice received a conventional photosensitizer; either 5 mg/kg of chloroaluminum phthalocyanine tetrasulfonate, herein also referred to as "AlPcTS" in phosphate buffered saline or 5 mg/kg of Photofrin®-II in 5% dextrose. Twenty-four hours after the photosensitizers were administered, the tumors were irradiated with visible radiation delivered by an argon-pumped dye laser. The mice that received a phthalocyanine photosensitizer received light having a wavelength of 675 nm and the mice that received the Photofrin® II photosensitizer received light having a wavelength of 630 nm. Each tumor received 135 J/cm^2 of radiation. Tumor size was measured every day using calipers. The initial tumor volume was 50±10 mm^3. Tumor volume was calculated according to the hemiellipsoid model by the formula: [formula] Where l is length Where W is width

[5] = Cricetulus griseus, V79, 0.5 μM, at 10 kJ/m^2, read-out: Maximum Effect (% survival)
[6] = Cricetulus griseus, V79, 1 μM, at 10 kJ/m^2, read-out: Maximum Effect (% survival)

Compound	Uptake into V79 cells, composite value [1] [n Moles/10^6 cells/μM]	Uptake (from Table 2) [1] [n Moles/10^6 cells/μM]	Uptake into V79 cells ([1]; 4 μM) [n Moles/10^6 cells]	Uptake into V79 cells ([1]; 1 μM) [n Moles/10^6 cells]	further results
CCCCN1CCN(CCC[Si](C)(C)O[Si]2(O)n3c4c5ccccc5c3N=C3N=C(N=c5c6ccccc6c(n52)=NC2=NC(=N4)c4ccccc42)c2ccccc23)CC1 (stereo not shown) [Compound XXXI, HOSiPCOSi(CH3)2 (CH2)3 NC4 H8 N(CH2)3 CH3]	0.3	0.3			Uptake into V79 cells ([1]; 2 μM): 0.61 ± 0.1 n Moles/10^6 cells; Cell survival at highest light dose at 0.5 µM [2, 5]: 30%
CC(=O)OCCC[Si](C)(C)O[Si]1(O)n2c3c4ccccc4c2N=C2N=C(N=c4c5ccccc5c(n41)=NC1=NC(=N3)c3ccccc31)c1ccccc12 (stereo not shown) [Compound XIII, HOSiPcOSi(CH3)2 (CH2)3 OCOCH3]	0.4	0.4	1.7 ± 0.3		Cell survival at highest light dose at 1 µM ([2]; Cricetulus griseus, V79, 1 μM, at 15 kJ/m^2, read-out: Maximum Effect (% survival)): 88%
C[Si](C)(CCCO)O[Si]1(O)n2c3c4ccccc4c2N=C2N=C(N=c4c5ccccc5c(n41)=NC1=NC(=N3)c3ccccc31)c1ccccc12 (stereo not shown) [Compound XVII, HOSiPCOSi(CH3)2 (CH2)3 OH]	0.4	0.4	1.7 ± 0.2		Cell survival at highest light dose at 1 µM [2, 6]: 19%
CN(C)CCCCCCCC[Si](C)(C)O[Si]1(O)n2c3c4ccccc4c2N=C2N=C(N=c4c5ccccc5c(n41)=NC1=NC(=N3)c3ccccc31)c1ccccc12 (stereo not shown) [Compound XXII, HOSiPcOSi(CH3)2 (CH2)8 N(CH3)2]					Minimum Demonstrated Condition to induce apoptosis: C × F ([3]; 0.5 μM): 5.0 μm × kJ/m^2; Minimum Demonstrated Condition to induce apoptosis: Fluence ([3]; 0.5 μM): 10.0 kJ/m^2; LD 90 ([2]; 0.5 μM, 18 h, light dose killing 90% of cells): 10 kJ/m^2
C[Si](C)(CCCN=C=S)O[Si]1(O)n2c3c4ccccc4c2N=C2N=C(N=c4c5ccccc5c(n41)=NC1=NC(=N3)c3ccccc31)c1ccccc12 (stereo not shown) [Compound XXVI, HOSiPcOSi(CH3)2 (CH2)3 NCS]					Cell survival at highest light dose at 1 µM ([2]; Cricetulus griseus, V79, read-out: Maximum Effect (% survival)): 100%
CCN(CC)c1ccc2c(c1)Oc1cc(N(CC)CC)ccc1C21c2ccccc2C(=O)N1CCCC[Si](C)(C)O[Si]1(O[Si](C)(C)C(C)(C)C)n2c3c4ccccc4c2N=C2N=C(N=c4c5ccccc5c(n41)=NC1=NC(=N3)c3ccccc31)c1ccccc12 (stereo not shown) [Compound XV, (CH3)3 C(CH3)2 SiOSiPcOSi(CH3)2 (CH2)4 NCOC27 H30 N2 O]	< 0.05	0.05	0.14 ± 0.12	0.01 ± 0.01	induction of apoptosis [3]: did not induce apoptosis; Cell survival at highest light dose at 4 µM ([2]; Cricetulus griseus, V79, 4 μM, at 20 kJ/m^2, read-out: Maximum Effect (% survival)): 81%
chloroaluminum phthalocyanine tetrasulfonate [AlPcTS, reference compound]					Doubling Time of Initial Tumor Volume after PDT [4]: 7 days
C[Si](C)(CCCN1CCOCC1)O[Si]1(O)n2c3c4ccccc4c2N=C2N=C(N=c4c5ccccc5c(n41)=NC1=NC(=N3)c3ccccc31)c1ccccc12 (stereo not shown) [Compound XIX, HOSiPcOSi(CH3)2 (CH2)3 NC4 H8 O]		1.3	2.4 ± 0.5	0.3 ± 0.1	uptake by V79 cells (in words) [1]: poor uptake; dependence of uptake on phthalocyanine concentration [1]: not linearly dependent upon the phthalocyanine concentration; Uptake into V79 cells, composite value (asterisk) [1]: 0.3 n Moles/10^6 cells/μM; Cell survival at highest light dose at 1 µM [2, 6]: 81%; photosensitizing activity, killing V79 cells (in words) ([2]; discussion of Table 3): less active as a photosensitizer
C[Si](C)(CCCN1CCSCC1)O[Si]1(O)n2c3c4ccccc4c2N=C2N=C(N=c4c5ccccc5c(n41)=NC1=NC(=N3)c3ccccc31)c1ccccc12 (stereo not shown) [Compound XXIV, HOSiPCOSi(CH3)2 (CH2)3 NC4 H8 S]		< 0.05	1.3 ± 0.1	0.003 ± 0.001	dependence of uptake on phthalocyanine concentration [1]: not linearly dependent upon the phthalocyanine concentration; Uptake into V79 cells, composite value (asterisk) [1]: < 0.05 n Moles/10^6 cells/μM; Cell survival at highest light dose at 0.5 µM [2, 5]: 100%
CCCCN(CCCC)CCC[Si](C)(C)O[Si]1(O)n2c3c4ccccc4c2N=C2N=C(N=c4c5ccccc5c(n41)=NC1=NC(=N3)c3ccccc31)c1ccccc12 (stereo not shown) [Compound XXV, HOSiPcOSi(CH3)2 (CH2)3 N(CH2)3 CH3)2]		< 0.05	1.5 ± 0.3	0.02 ± 0.02	dependence of uptake on phthalocyanine concentration [1]: not linearly dependent upon the phthalocyanine concentration; Uptake into V79 cells, composite value (asterisk) [1]: < 0.05 n Moles/10^6 cells/μM; Cell survival at highest light dose at 0.5 µM ([2]; Cricetulus griseus, V79, 0.5 μM, at 8 kJ/m^2, read-out: Maximum Effect (% survival)): 87%
C[Si](C)(CCCCNC(=S)N[C@@H]1O[C@H](CO)[C@@H](O)[C@H](O)[C@H]1O)O[Si]1(O[Si](C)(C)CCCCNC(=S)N[C@@H]2O[C@H](CO)[C@@H](O)[C@H](O)[C@H]2O)n2c3c4ccccc4c2N=C2N=C(N=c4c5ccccc5c(n41)=NC1=NC(=N3)c3ccccc31)c1ccccc12 [Compound XI, SiPc[OSi(CH3)2 (CH2)4 NHCSNHC6 H11l O5 ]2]	0.1	0.1	0.3 ± 0.1	0.1	induction of apoptosis [3]: did not induce apoptosis; Cell survival at highest light dose at 1 µM ([2]; Cricetulus griseus, V79, 1 μM, at 20 kJ/m^2, read-out: Maximum Effect (% survival)): 100%
